Laboratory results published in patent US11746133B2, “Cell penetrating peptides that inhibit IRF5 nuclear localization” (Rutgers, The State University of New Jersey, priority 2015, dated 2023).
Residues, ends and D or L forms follow the SMILES beside them.

Key:
Ramos B cells [1] = assay: Propidium iodide staining to quantify cell death after inhibitor titration; assay type: cell-based, human; settings: 25 uM FITC-conjugated inhibitor, 2 hours
Description: Peptide inhibitor titration and uptake. Ramos B cells or THP1 cells were treated with 0.025, 0.25, 2.5, and 25 uM of FITC conjugated peptide inhibitors for 2 hours. Cells were washed, stained with propidium iodide, and immediately analyzed by flow cytometry for uptake of FITC peptide. For uptake experiments in PBMCs, cells were incubated with 10 uM of either mock, scrambled, N-term′ NLS, or C-term′ NLS FITC conjugated inhibitor for 2 hours. Cells were then washed and blocked as previously outlined, and subsequently stained with CD19-BV510 and CD14-PE (Biolegend Catalog #301806). Cells were fixed, stained with DRAQ5 nuclear dye and analyzed by imagestream for uptake of FITC peptide.
IRF5 Peptide Inhibitors readily enter the cell and have low associated toxicity. IRF5 peptide inhibitors were conjugated to FITC moieties to measure cellular uptake over a dose-dependent response. Ramos B cells were treated with increasing concentrations of FITC-conjugated inhibitor for 2 hours. Cells were washed and subsequently treated with propidium iodide to quantify cell death. […] Cell cycle was measured through propidium iodide incorporation, and quantified through flow cytometry. […] To determine if it would be possible to increase uptake of the inhibitor in B cells, uptake following incubation with 10 uM for 1 hour was measured.

IRF5 [2] = molecular target: T1, IRF5 (Homo sapiens, UniProt Q13568); assay: R848-induced IRF5 nuclear translocation in PBMCs by imaging flow cytometry; assay type: cell-based; settings: inhibitor 1 hour, then 500 ng/mL R848 2 hours, vs scrambled control
T1 construct: endogenous in cells; host or cells: healthy-donor human PBMCs; CD14+ monocytes and CD19+ B cells
T1 sequence (Q13568 1-498): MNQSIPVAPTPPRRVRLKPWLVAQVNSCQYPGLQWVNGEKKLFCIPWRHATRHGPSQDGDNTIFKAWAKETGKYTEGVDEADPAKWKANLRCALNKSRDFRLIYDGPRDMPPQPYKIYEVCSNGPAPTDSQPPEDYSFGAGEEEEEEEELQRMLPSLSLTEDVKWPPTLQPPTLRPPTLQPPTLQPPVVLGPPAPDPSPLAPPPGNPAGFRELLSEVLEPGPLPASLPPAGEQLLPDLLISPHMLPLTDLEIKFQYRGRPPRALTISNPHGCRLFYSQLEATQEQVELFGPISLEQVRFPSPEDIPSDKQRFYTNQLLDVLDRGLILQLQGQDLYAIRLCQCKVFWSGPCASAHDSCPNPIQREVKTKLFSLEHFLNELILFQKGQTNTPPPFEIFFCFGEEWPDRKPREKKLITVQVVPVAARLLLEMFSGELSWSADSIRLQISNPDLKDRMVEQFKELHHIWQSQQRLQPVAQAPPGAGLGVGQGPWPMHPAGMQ
Description: FIGS. 2A-E. Peptides (non-FITC-conjugated) inhibit R848-induced IRF5 nuclear translocation. Healthy donor PBMCs were pre-incubated with peptide inhibitors for 1 hour and then stimulated for 2 hours with the Toll-like receptor agonist R848. IRF5 cellular localization was determined in CD14+ monocytes (FIG. 2A) and CD19+ B cells (FIG. 2B) by staining with intracellular IRF5 and DRAQ5. Similarity scores between IRF5 and DRAQ5 were determined on the Amnis Imagestream using IDEAS software. […] Lamin B1 serves as a nuclear protein loading control. Cells were pre-incubated with the indicated inhibitors for 1 hour and then stimulated with LPS for 2 hours. […] IRF5 band intensity was normalized by Lamin B1, and relative fold change of IRF5 in nuclear portion was calculated over PBS treated sample. […]
Imaging Flow Cytometry. […] Nuclear translocation was quantified in the Amnis IDEAS software suite. […] Finally, IRF5 nuclear translocation was determined through use of the similarity score feature contrasting IRF5 staining with DRAQ5 staining. […]
IRF5 peptide inhibitor blocks IRF5 nuclear translocation in both B cells and monocytes. […] As IRF5 has been implicated in the onset of autoimmune diseases in both monocytes and B cells, it was sought to be determined if IRF5 nuclear translocation could be inhibited in both cell populations following stimulation with the TLR7 agonist R848. […]

IRF5 [3] = molecular target: T1, IRF5; assay: Cell fractionation and Western blot of nuclear IRF5 in primary monocytes; assay type: cell-based; settings: isolated primary monocytes, inhibitor then R848 stimulation
Description: FIGS. 2A-E. Peptides (non-FITC-conjugated) inhibit R848-induced IRF5 nuclear translocation. Healthy donor PBMCs were pre-incubated with peptide inhibitors for 1 hour and then stimulated for 2 hours with the Toll-like receptor agonist R848. IRF5 cellular localization was determined in CD14+ monocytes (FIG. 2A) and CD19+ B cells (FIG. 2B) by staining with intracellular IRF5 and DRAQ5. Similarity scores between IRF5 and DRAQ5 were determined on the Amnis Imagestream using IDEAS software. […] Lamin B1 serves as a nuclear protein loading control. […] IRF5 band intensity was normalized by Lamin B1, and relative fold change of IRF5 in nuclear portion was calculated over PBS treated sample. In FIGS. 2A-B and E, the bar on the left is mock (NT) and the bar on the right is R848.
Cell Fractionation. Cells were fractionated according to manufacturer's protocol (Cell Signaling, Cell fractionation kit, #9038). Following fractionation, lysates were sonicated and boiled. Nuclear fraction was analyzed by Western blot as follows: 30 μL of lysate was loaded onto a 3-8% NuPAGE® Novex® Tris-Acetate gel (Life Technologies, #EA0378BOX), and transferred onto a 0.45 μm nitrocellulose membrane (Bio-Rad Laboratories). […] Membrane was incubated with Clarity™ ECL Western Blotting Substrate (Bio-Rad Laboratories) and chemiluminescence detected with a ChemiDoc™ MP Imaging System (Bio-Rad Laboratories). […]

Ramos B cells [4] = assay: Tryphan blue staining for cell viability after 24 hours with inhibitor; assay type: cell-based, human; settings: 25 uM
Description: IRF5 Peptide Inhibitors readily enter the cell and have low associated toxicity. IRF5 peptide inhibitors were conjugated to FITC moieties to measure cellular uptake over a dose-dependent response. Ramos B cells were treated with increasing concentrations of FITC-conjugated inhibitor for 2 hours. Cells were washed and subsequently treated with propidium iodide to quantify cell death. While at the lower doses of 0.025 and 0.25 uM minimal uptake was seen, at 2.5 uM however, greater than 95% of cells were positive for the FITC-conjugated inhibitor (FIG. 1A). In addition, less than 3% of cells stained positive for propidium iodide, indicating low toxicity for the inhibitor at this dose. […] However, no significant increase in uptake was seen between 2.5 uM and 25 uM concentrations of inhibitor. To ensure no impact on cell viability from treatment with the inhibitors, Ramos B cells were treated with varying concentrations of inhibitor as used previously for the titration experiments for 24 hours, and tryphan blue staining was subsequently performed. […] Cell cycle was measured through propidium iodide incorporation, and quantified through flow cytometry. […] To determine if it would be possible to increase uptake of the inhibitor in B cells, uptake following incubation with 10 uM for 1 hour was measured.

## CC[C@H](C)[C@H](NC(=O)[C@H](CCCCN)NC(=O)[C@@H](NC(=O)[C@H](CCC(N)=O)NC(=O)[C@H](CCCNC(=N)N)NC(=O)[C@@H](N)CC(=O)O)[C@@H](C)CC)C(=O)N[C@@H](Cc1c[nH]c2ccccc12)C(=O)N[C@@H](Cc1ccccc1)C(=O)N[C@@H](CCC(N)=O)C(=O)N[C@@H](CC(N)=O)C(=O)N[C@@H](CCCNC(=N)N)C(=O)N[C@@H](CCCNC(=N)N)C(=O)N[C@@H](CCSC)C(=O)N[C@@H](CCCCN)C(=O)N[C@@H](Cc1c[nH]c2ccccc12)C(=O)N[C@@H](CCCCN)C(=O)N[C@@H](CCCCN)C(=O)N1CCC[C@H]1C(=O)N[C@@H](CCCNC(=N)N)C(=O)N[C@@H](CCCNC(=N)N)C(=O)N[C@H](C(=O)N[C@@H](CCCNC(=N)N)C(=O)N[C@@H](CC(C)C)C(=O)N[C@@H](CCCCN)C(=O)O)C(C)C [IRF5 5′NLS] (H-DRQIKIWFQNRRMKWKKPRRVRLK-OH)
Ramos B cells [1]
  associated toxicity (propidium iodide): minimal associated toxicity

## DRQIKIWFQNRRMKWKKPREKKLI [IRF5 3′NLS]
IRF5 [2]
  IRF5 nuclear translocation in B cells: no inhibition
  IRF5 nuclear translocation in monocytes: only slightly reduced nuclear translocation
IRF5 [3]
  levels of IRF5 in the nucleus (cell fractionation, Western blot): Reduced levels of IRF5

## CC[C@H](C)[C@H](NC(=O)[C@H](CCCCN)NC(=O)[C@@H](NC(=O)[C@H](CCC(N)=O)NC(=O)[C@H](CCCNC(=N)N)NC(=O)[C@@H](N)CC(=O)O)[C@@H](C)CC)C(=O)N[C@@H](Cc1c[nH]c2ccccc12)C(=O)N[C@@H](Cc1ccccc1)C(=O)N[C@@H](CCC(N)=O)C(=O)N[C@@H](CC(N)=O)C(=O)N[C@@H](CCCNC(=N)N)C(=O)N[C@@H](CCCNC(=N)N)C(=O)N[C@@H](CCSC)C(=O)N[C@@H](CCCCN)C(=O)N[C@@H](Cc1c[nH]c2ccccc12)C(=O)N[C@@H](CCCCN)C(=O)N[C@@H](CCCCN)C(=O)N1CCC[C@H]1C(=O)N[C@@H](CCCCN)C(=O)N[C@@H](CCCNC(=N)N)C(=O)N[C@@H](CCCNC(=N)N)C(=O)N[C@@H](CCCNC(=N)N)C(=O)N[C@@H](CC(C)C)C(=O)N[C@H](C(=O)O)C(C)C [Scrambled 5′NLS] (H-DRQIKIWFQNRRMKWKKPKRRRLV-OH; N-terminus and C-terminus assumed)
Ramos B cells [4]
  viability by tryphan blue staining: decrease in viability
Ramos B cells [1]
  associated toxicity (propidium iodide): minimal associated toxicity
